According to patent US5440014A, “Fibronectin binding peptide” (priority 1990, dated 1995):

Tests used:
[1] = tested on: Treponema palladium; conditions: Thomas et al., 1985b; cited from earlier work
[2] = tested on: Trypanosoma cruzi; conditions: Ouaissi et al., 1986; cited from earlier work
[3] = tested on: spirochetes; conditions: cited from earlier work
[4] = biological target: Human fibronectin (human, UniProt P02751, ^125 I-labeled (chloramine T iodination)); test: synthetic peptide; inhibition of 125I-HFN binding to S. aureus 8325-4 cells

Molecule | prevention of fibronectin binding to Treponema palladium [1] | prevention of fibronectin binding to Trypanosoma cruzi [2] | attachment of spirochetes to cultured human cells [3] | binding result [4]
RGDS | Binding was also prevented | Binding was also prevented | blocked the attachment | 
QFGGHNSVDFEEDT [Peptide S20-33] |  |  |  | no binding
